Values joined by “and” are separate entries in the source; they are usually repeats but may differ in a detail not shown here. Equal entries are not always repeated.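 Compound exposure: 48 hours, 5 concentrations, 96-well plates. GI50 = concentration required for 50% inhibition of growth. The concentration for full growth arrest is given as TGI.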
What was measured:
Experiment in all cases: NCI-60 cell line screen, 48 h
HCT-15 colon = tested on: HCT-15 colon
KM12 colon = tested on: KM12 colon
LOX IMVI melanoma = tested on: LOX IMVI melanoma
MALME-3M melanoma = tested on: MALME-3M melanoma
NCI-H226 lung = tested on: NCI-H226 lung
SF-268 CNS = tested on: SF-268 CNS
SF-295 CNS = tested on: SF-295 CNS
SNB-75 CNS = tested on: SNB-75 CNS
U251 CNS = tested on: U251 CNS
UO-31 renal = tested on: UO-31 renal

N/C(=N\C(N)=N\c1nc2ccccc2s1)c1cnccn1
GI50 (HCT-15 colon): 3.12 µM
TGI (HCT-15 colon): > 100 µM
GI50 (KM12 colon): 3.37 µM
TGI (KM12 colon): > 100 µM
GI50 (LOX IMVI melanoma): 3.47 µM
TGI (LOX IMVI melanoma): > 100 µM
GI50 (MALME-3M melanoma): 2.27 µM
TGI (MALME-3M melanoma): 5.66 µM
GI50 (NCI-H226 lung): 2.45 µM
TGI (NCI-H226 lung): 6.34 µM
GI50 (SF-268 CNS): 4.74 µM
TGI (SF-268 CNS): > 100 µM
GI50 (SF-295 CNS): 3.19 µM
TGI (SF-295 CNS): 22.6 µM
GI50 (SNB-75 CNS): 2.15 µM
TGI (SNB-75 CNS): 15.3 µM
GI50 (U251 CNS): 2.96 µM
TGI (U251 CNS): 14.9 µM
GI50 (UO-31 renal): 2.05 µM
TGI (UO-31 renal): 4.87 µM

COC(=O)CC1CC2(C(=O)OC)c3[nH]c4ccccc4c3CCN2C1=O (stereo unspecified)
TGI (HCT-15 colon): > 100 µM
TGI (KM12 colon): > 100 µM
TGI (LOX IMVI melanoma): > 100 µM
TGI (MALME-3M melanoma): > 100 µM
TGI (NCI-H226 lung): > 100 µM
TGI (SF-268 CNS): > 100 µM
TGI (SF-295 CNS): > 100 µM
TGI (SNB-75 CNS): > 100 µM
TGI (U251 CNS): > 100 µM
TGI (UO-31 renal): > 100 µM

CC1OC(OC2C(O[C@H]3CC[C@@]4(C)C(=CC[C@H]5[C@@H]6C[C@@H]7O[C@]8(CC[C@@H](C)CO8)[C@@H](C)[C@@H]7[C@@]6(C)CC[C@@H]54)C3)OC(CO)C(OC3OC(CO)C(O)C3O)C2O)C(O)C(O)C1O (stereo partly specified)
GI50 (HCT-15 colon): 0.621 µM
TGI (HCT-15 colon): 1.99 µM and 1.94 µM
GI50 (KM12 colon): 0.287 µM
TGI (KM12 colon): 2.39 µM and 0.849 µM
GI50 (LOX IMVI melanoma): 0.21 µM
TGI (LOX IMVI melanoma): 1.19 µM and 0.517 µM
GI50 (MALME-3M melanoma): 0.324 µM
TGI (MALME-3M melanoma): 1.61 µM and 0.891 µM
TGI (NCI-H226 lung): 1.73 µM
TGI (SF-268 CNS): 1.61 µM and 2.03 µM
GI50 (SF-295 CNS): 0.448 µM
TGI (SF-295 CNS): 1.53 µM and 1.62 µM
TGI (SNB-75 CNS): 1.62 µM
GI50 (U251 CNS): 0.325 µM
TGI (U251 CNS): 1.44 µM
TGI (UO-31 renal): 1.5 µM

COc1ccc(/C=C\c2cc(OC)c(OC)c(OC)c2)c(NS(=O)(=O)c2ccc(C(C)(C)C)cc2)c1O
GI50 (HCT-15 colon): 0.234 µM
TGI (HCT-15 colon): 16.2 µM
GI50 (KM12 colon): 0.58 µM
TGI (KM12 colon): 15.2 µM
GI50 (LOX IMVI melanoma): 0.667 µM
TGI (LOX IMVI melanoma): 17.1 µM
GI50 (MALME-3M melanoma): 12.5 µM
TGI (MALME-3M melanoma): 30.4 µM
GI50 (NCI-H226 lung): 0.546 µM
TGI (NCI-H226 lung): 13.5 µM
GI50 (SF-268 CNS): 1.71 µM
TGI (SF-268 CNS): 41.2 µM
GI50 (SF-295 CNS): 1.37 µM
TGI (SF-295 CNS): 15 µM
GI50 (SNB-75 CNS): 0.231 µM
TGI (SNB-75 CNS): 14.1 µM
GI50 (U251 CNS): 0.597 µM
TGI (U251 CNS): 21.8 µM
GI50 (UO-31 renal): 0.982 µM
TGI (UO-31 renal): 21.6 µM

O=C(Nc1ccc(C(F)(F)F)cc1[N+](=O)[O-])c1cccnc1
TGI (HCT-15 colon): > 100 µM
TGI (KM12 colon): > 100 µM
TGI (LOX IMVI melanoma): > 100 µM
TGI (MALME-3M melanoma): 8.32 µM
TGI (NCI-H226 lung): > 100 µM
TGI (SF-268 CNS): 30.6 µM
TGI (SF-295 CNS): 23.9 µM
TGI (SNB-75 CNS): > 100 µM
TGI (U251 CNS): > 100 µM
TGI (UO-31 renal): > 100 µM

CC1=C(CNO)C2=C(C)C3(CC3)[C@@](C)(O)C(=O)C2=C1
GI50 (HCT-15 colon): 1.71 µM
TGI (HCT-15 colon): 4.99 µM
GI50 (KM12 colon): 3.72 µM
TGI (KM12 colon): 27.4 µM
GI50 (LOX IMVI melanoma): 3.44 µM
TGI (LOX IMVI melanoma): 19 µM
GI50 (MALME-3M melanoma): 1.81 µM
TGI (MALME-3M melanoma): 3.71 µM
GI50 (NCI-H226 lung): 1.83 µM
TGI (NCI-H226 lung): 4.79 µM
GI50 (SF-268 CNS): 0.766 µM
TGI (SF-268 CNS): 9.89 µM
GI50 (SF-295 CNS): 0.982 µM
TGI (SF-295 CNS): 4.42 µM
GI50 (SNB-75 CNS): 1.38 µM
TGI (SNB-75 CNS): 2.86 µM
GI50 (U251 CNS): 2.39 µM
TGI (U251 CNS): > 100 µM
GI50 (UO-31 renal): 1.83 µM
TGI (UO-31 renal): 5.87 µM

NC(=O)c1ncn(C2OC(CO)C(O)C2O)c1N (stereo unspecified)
GI50 (HCT-15 colon): > 100 µM
TGI (HCT-15 colon): > 100 µM
GI50 (KM12 colon): > 100 µM
TGI (KM12 colon): > 100 µM
GI50 (LOX IMVI melanoma): > 100 µM
TGI (LOX IMVI melanoma): > 100 µM
GI50 (MALME-3M melanoma): > 100 µM
TGI (MALME-3M melanoma): > 100 µM
GI50 (NCI-H226 lung): > 100 µM
TGI (NCI-H226 lung): > 100 µM
GI50 (SF-268 CNS): > 100 µM
TGI (SF-268 CNS): > 100 µM
GI50 (SF-295 CNS): > 100 µM
TGI (SF-295 CNS): > 100 µM
GI50 (SNB-75 CNS): > 100 µM
TGI (SNB-75 CNS): > 100 µM
GI50 (U251 CNS): > 100 µM
TGI (U251 CNS): > 100 µM
GI50 (UO-31 renal): > 100 µM
TGI (UO-31 renal): > 100 µM

Source: PubChem BioAssay (NCI)
